Assays:
MCF7 = test: Antiproliferative activity against human MCF7 cells; format: functional, cell-based
[1] = Drug metabolism in human liver microsomes; format: ADME; conditions: read-out: Drug metabolism
[2] = Antiproliferative activity against human colon cancer cells; format: functional, cell-based; conditions: Cancer cell lines
Homo sapiens = test: Toxicity in patient assessed as median survival time at 450 mg/m'2, iv administered per week; format: organism-based; conditions: in vivo
[3] = Cytotoxicity against human ARPE19 cells; format: cell-based; conditions: ARPE-19
HUVEC = test: Cytotoxicity against HUVEC; format: cell-based; conditions: Homo sapiens
Heat shock protein HSP90 = Heat shock protein HSP90 (Homo sapiens, UniProt P07900+P08238); test: Inhibition of HSP90 (unknown origin); format: protein assay

With O=C(O[C@@H]1Cc2c(O)cc(O)cc2O[C@@H]1c1cc(O)c(O)c(O)c1)c1cc(O)c(O)c(O)c1 [EPIGALOCATECHIN GALLATE] the IC50 (MCF7) was 74 µM.

With O=C1CCCC/C=C/CCOC(=O)c2c(O)cc(O)c(Cl)c2C1 the metabolised [1] was 90% and the IC50 [2] was 7.6 µM.

C=CCNC1=C2C[C@@H](C)C[C@H](OC)[C@H](O)[C@@H](C)/C=C(\C)[C@H](OC(N)=O)[C@@H](OC)/C=C\C=C(/C)C(=O)NC(=CC1=O)C2=O [TANESPIMYCIN] gave an MST (Homo sapiens) of 232 days.

Work on C[C@@H]1C[C@H]2O[C@@H]2/C=C\C=C\C(=O)Cc2c(Cl)c(O)cc(O)c2C(=O)O1 [RADICICOL] yielded a metabolised [1] of 83%.

Compound CO[C@H]1/C=C\C=C(/C)C(=O)NC2=C(c3ccccc3)C(=O)C(NCCN(C)C)=C(C[C@@H](C)C[C@H](OC)[C@H](O)[C@@H](C)/C=C(\C)[C@@H]1OC(N)=O)C2=O (stereo in doubt) has an IC50 [3] of less than 5 µM and an IC50 (HUVEC) of less than 5 µM.

Compound O=C1NCC/C=C/CCCC(C(=O)NCc2ccccc2)C(=O)Cc2c(Cl)c(O)cc(O)c21 (stereo unspecified) has a metabolised [1] of 47%, an IC50 [2] of 0.6 µM and an IC50 (Heat shock protein HSP90) of 0.2 µM.

CC(=O)Oc1ccc(C(=O)O[C@@H]2Cc3c(O)cc(O)cc3O[C@@H]2c2ccccc2)cc1CC=C(C)C gave an IC50 (MCF7) of 4 µM.
